Assays:
ACAT = target: T1, ACAT (Oryctolagus cuniculus, UniProt A0A5F9CPP4); experiment: Atherosclerotic lesion ACAT enzyme inhibition test (3-day oral administration, lesion homogenate, correction markers); format: in vivo, WHHL rabbit
T1 construct: to obtain a homogenate, which was used as an “atherosclerotic lesion sample” for a biochemical measurement; from tissue; host or cells: aortic atherosclerotic lesion tissue homogenate of WHHL rabbits dosed orally for 3 days
T1 sequence (A0A5F9CPP4 1-555): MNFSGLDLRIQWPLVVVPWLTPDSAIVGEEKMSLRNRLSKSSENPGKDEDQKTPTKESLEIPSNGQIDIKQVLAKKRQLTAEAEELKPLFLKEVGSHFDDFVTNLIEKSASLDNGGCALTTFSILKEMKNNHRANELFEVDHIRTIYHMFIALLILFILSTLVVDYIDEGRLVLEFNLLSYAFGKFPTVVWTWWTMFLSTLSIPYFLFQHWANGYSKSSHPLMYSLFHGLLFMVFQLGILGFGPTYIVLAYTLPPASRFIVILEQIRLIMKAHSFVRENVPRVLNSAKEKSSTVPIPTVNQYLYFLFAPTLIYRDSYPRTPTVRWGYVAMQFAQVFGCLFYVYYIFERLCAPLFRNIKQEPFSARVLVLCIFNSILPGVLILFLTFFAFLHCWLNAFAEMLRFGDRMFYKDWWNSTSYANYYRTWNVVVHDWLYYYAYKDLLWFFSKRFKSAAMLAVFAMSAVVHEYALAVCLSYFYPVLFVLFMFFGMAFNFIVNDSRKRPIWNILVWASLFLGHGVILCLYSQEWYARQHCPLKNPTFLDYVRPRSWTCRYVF
Text: Using a rabbit having an atherosclerotic lesion in the aorta due to rearing with a high cholesterol diet, or due to hereditary hyperlipemia, etc., an ACAT inhibitor or a medium was orally administered once a day for 3 days. About two hours after final administration, the rabbit was anesthetized and killed by exsanguination, and the aorta was removed, frozen and stored. After thawing the frozen-stored aorta, a tissue section of an atherosclerotic lesion residing site was corrected using a biopsy trephine. […]
An ACAT reaction was measured by mixing a reaction buffer (0.19 M Tris-HCl pH 7.5, 3 mM EDTA, cholesterol 0.2 mg/ml, BSA 3 mg/ml), the aforementioned “atherosclerotic lesion sample”, and a substrate solution ([3H]Oleoyl-CoA), reacting the mixture with stirring at 37° C. for 30 minutes, fractionating a lipid fraction by thin layer chromatography, and measuring radioactivity (DPM) incorporated into a cholesteryl ester fraction with a liquid scintillation counter. Radioactivity of a blank sample (STE buffer instead of the homogenate was added) was also measured, and a value obtained by subtracting radioactivity of the blank from radioactivity of each sample was adopted as the ACAT enzyme activity. […]

[1] = Anti-atherosclerotic activity test in WHHL rabbit: plasma total cholesterol exposure amount; format: in vivo; conditions: for Plasma total cholesterol exposure amount during administration period: average ± standard error, control 6194 ± 511, no significant difference (Williams' test)
Procedure: (§1) Using 7-month-old WHHL rabbits, the compound X (3, 10 mg/kg/day) was orally administered once a day for 12 weeks and influence on atherosclerosis was examined. Before drug administration, aortic atherosclerosis was tested by intravascular ultrasound (IVUS), and WHHL rabbits were grouped based on the aortic atherosclerosis, plasma cholesterol level and sex.
(§2) Before initiation of administration, and 1, 2, 4, 6, 8, 10, 12 weeks from administration, blood samples were collected, a plasma total cholesterol level of each sample was measured using a biochemical automatic analysis apparatus and a plasma total cholesterol exposure amount during the administration period was obtained by a trapezoid formula. After administration, the thoracic aorta was removed, and a cholesterol ester content as an index of atherosclerosis was measured.

atherosclerotic lesion [2] = experiment: Anti-atherosclerotic activity test in WHHL rabbit: cholesterol ester content of thoracic aorta; format: in vivo
Procedure: as §1, §2

atherosclerotic lesion [3] = conditions: pre-clinical tests; accompanied with reduction in plasma cholesterol level; cited from earlier work
[4] = clinical test; cited from earlier work

Compound: Monopotassium bis((2E)-3-{3-[7-chloro-3-(2-{[4-fluoro-2-(trifluoromethyl)phenyl]amino}-2-oxoethyl)-6-methyl-2-oxo-2H-chromen-4-yl]phenyl}acrylate) trihydrate [compound X]
- inhibition of ACAT enzyme activity, LAL correction (ACAT; 3 mg/kg orally once a day for 3 days, vs control group): significant inhibition
- inhibition of atherosclerotic lesion ACAT activity utilizing the correction marker (ACAT; 3 and 10 mg/kg, administration for 3 days): inhibited the atherosclerotic lesion ACAT activity of the WHHL rabbit dose-dependently
- Plasma total cholesterol exposure amount during administration period ([1]; 3 mg/kg/day orally for 12 weeks): 5356 ± 410 mg · week/dL
- Plasma total cholesterol exposure amount during administration period ([1]; 10 mg/kg/day orally for 12 weeks): 4957 ± 490 mg · week/dL
- effect on plasma total cholesterol exposure amount during the administration period (in words) ([1]; 3 and 10 mg/kg/day orally for 12 weeks): only a reduction tendency
- anti-atherosclerotic activity by long-term treatment (atherosclerotic lesion [2]; 3 and 10 mg/kg, long-term treatment): clear anti-atherosclerotic activity
- cholesterol ester content of the thoracic aorta (atherosclerotic lesion [2]; 3 and 10 mg/kg/day orally for 12 weeks (FIG. 10)): significantly reduced

Compound: CC(C)c1cc(C(C)C)c(CC(=O)NS(=O)(=O)Oc2c(C(C)C)cccc2C(C)C)c(C(C)C)c1 [Avasimibe]
- anti-atherosclerotic activity: cholesterol ester in an atherosclerotic lesion (atherosclerotic lesion [3]): lowering a cholesterol ester in an atherosclerotic lesion
- anti-atherosclerotic activity [4]: no effect was observed
- effect on blood lipid level [4]: certain effect

Reference: patent US20090253789A1, “Preventive/Remedy for Arteriosclerotic Disease and Method of Evaluating Therapeutic Procedure” (Takeda Pharmaceutical Company Limited, priority 2006, published 2009)
